Assay results: US20250296960A1, “PEPTIDE COMPOSITIONS AND METHODS OF USE THEREOF” (priority 2022, published 2025)
Numbered stars: 1 amine (or outer) side, 2 acyl side, 3 side chain; on linkers, the order of the positions; unused ones are H or OH. Square brackets hold non-standard residues; d marks the D form. Side chains are listed from the residue outwards. Ends that are not written are not given here. * marks the point of attachment. C18 = C18 fatty acid (C16-C22 fatty acids conjugated via γGlu/8-amino-3,6-dioxaoctanoic acid spacers); C20 diacid = O=C(O)CCCCCCCCCCCCCCCCCCC(=O)*; γGlu = O=C(O)[C@H](CCC(=O)[*:2])N[*:1]; αMeL = CC(C)C[C@](C)(N)C(=O)O; AEEA = NCCOCCOCC(=O)O; Aib = CC(C)(N)C(=O)O

Experiments:
[1] = Body weight loss in normal C57BL/6 mice, subcutaneous dosing; assay type: in vivo; settings: for Weight loss (%): normal mice
Experimental: To confirm the therapeutic effect of the peptide in vivo, polypeptides were administered to mice to measure changes in body weight. […] The peptides were delivered at 0.02% polysorbate 80 (PS80) in PBS and dosing volume was 10 mL/kg. Body weight was monitored 6 h, QD.
To confirm the therapeutic effect of the peptide in obesity, diabetes, or NASH, polypeptides were administered to mice to measure changes in food intake, blood glucose and body weight. […] In addition, a NASH animal model was prepared by feeding a high fat, high fructose, high cholesterol diet to normal C57BL/6 mice (approximately 6 weeks old) for approximately 21 weeks, and increasing the body weights of the mice to approximately 50 g on average. Thereafter, polypeptides were administered by subcutaneous injection at dose of 20 nmol/kg once every other day for 2 weeks. Body weight and food intake were measured once every other day given points of time. After 2 weeks of treatment period, mice were sacrificed, then liver weight, hepatic triglyceride, and NASH related biomarkers were measured.
DD01 administered at 40 nmol/kg, s.c. Q2D as positive control was delivered at 0.02% PS80 in PBS and dosing volume was 10 mL/kg. Body weight was monitored QD for 4 days.
The peptides were delivered at 0.02% PS80 in PBS and dosing volume was 10 mL/kg. Food intake, blood glucose, and body weight changes were monitored QD.

human GLP-1R = biological target: T1, human GLP-1R (Homo sapiens, UniProt P43220); assay: cAMP assay (HitHunter cAMP) in GLP-1R-expressing CHO-K1 cells (GLP-1R+ cells); assay type: cell-based
T1 construct: host or cells: CHO-K1
Experimental: (§1) The cells were seeded in a 96-well plate at 7×10^3 cells/well using cell plate reagent and incubated the cells overnight at 37° C. and 5% CO2. To perform the cAMP detection assay, cell plating reagent were replaced with the cAMP Assay buffer. Each of the wells was then treated with the diluted peptide and incubated for 30 minutes under conditions of a temperature of 37° C. in a CO2 incubator.
(§2) After the incubation, cAMP Antibody reagent and Working cAMP detection solution to all wells. Incubate the plate for 1 hour at Room temperature in the dark. Then, cAMP Solution A was added and incubated for 3 hours at room temperature in the dark. Subsequently, the luminescence was measured using the microplate reader device.

human GIPR = biological target: T2, human GIPR (Homo sapiens, UniProt P48546); assay: cAMP assay (HitHunter cAMP) in GIPR-expressing CHO-K1 cells (GIPR+ cells); assay type: cell-based
T2 construct: host or cells: CHO-K1
T2 sequence (P48546 22-466): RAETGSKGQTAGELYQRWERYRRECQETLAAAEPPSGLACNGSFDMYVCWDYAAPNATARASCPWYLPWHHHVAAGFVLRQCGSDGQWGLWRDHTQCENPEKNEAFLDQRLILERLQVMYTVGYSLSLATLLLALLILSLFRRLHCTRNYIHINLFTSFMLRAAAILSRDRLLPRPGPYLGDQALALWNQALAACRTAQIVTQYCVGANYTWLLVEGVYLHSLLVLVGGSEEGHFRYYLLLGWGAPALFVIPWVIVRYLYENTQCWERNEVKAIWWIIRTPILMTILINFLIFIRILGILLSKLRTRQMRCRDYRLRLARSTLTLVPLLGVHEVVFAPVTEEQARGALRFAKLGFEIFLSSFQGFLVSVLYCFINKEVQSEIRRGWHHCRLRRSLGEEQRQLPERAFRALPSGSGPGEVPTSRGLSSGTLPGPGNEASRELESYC
Experimental: as §1, §2

human GCGR = biological target: T3, human GCGR (Homo sapiens, UniProt P47871); assay: cAMP assay (HitHunter cAMP) in GCGR-expressing CHO-K1 cells (GCGR+ cells); assay type: cell-based
T3 construct: host or cells: CHO-K1
Experimental: as §1, §2

[2] = 20 nmol/kg QD, after 48 or 72 hours
[3] = Table 13, EC50 of STD peptide over EC50 of peptide
[4] = Table 14, normalised to activity at GLP-1R
[5] = 20 nmol/kg QD, Weight loss at 48 hr

T1 sequence (P43220 24-463): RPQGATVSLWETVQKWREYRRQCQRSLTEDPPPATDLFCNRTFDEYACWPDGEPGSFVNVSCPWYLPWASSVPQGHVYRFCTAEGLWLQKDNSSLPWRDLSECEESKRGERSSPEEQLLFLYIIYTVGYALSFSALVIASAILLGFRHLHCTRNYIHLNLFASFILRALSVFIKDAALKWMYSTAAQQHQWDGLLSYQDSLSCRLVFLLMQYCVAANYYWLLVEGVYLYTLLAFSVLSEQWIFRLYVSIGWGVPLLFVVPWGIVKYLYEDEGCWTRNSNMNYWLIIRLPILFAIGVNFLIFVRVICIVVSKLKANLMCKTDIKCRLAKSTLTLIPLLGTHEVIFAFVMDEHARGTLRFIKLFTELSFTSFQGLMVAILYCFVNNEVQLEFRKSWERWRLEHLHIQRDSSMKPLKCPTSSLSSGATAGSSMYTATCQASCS
T3 sequence (P47871 26-477): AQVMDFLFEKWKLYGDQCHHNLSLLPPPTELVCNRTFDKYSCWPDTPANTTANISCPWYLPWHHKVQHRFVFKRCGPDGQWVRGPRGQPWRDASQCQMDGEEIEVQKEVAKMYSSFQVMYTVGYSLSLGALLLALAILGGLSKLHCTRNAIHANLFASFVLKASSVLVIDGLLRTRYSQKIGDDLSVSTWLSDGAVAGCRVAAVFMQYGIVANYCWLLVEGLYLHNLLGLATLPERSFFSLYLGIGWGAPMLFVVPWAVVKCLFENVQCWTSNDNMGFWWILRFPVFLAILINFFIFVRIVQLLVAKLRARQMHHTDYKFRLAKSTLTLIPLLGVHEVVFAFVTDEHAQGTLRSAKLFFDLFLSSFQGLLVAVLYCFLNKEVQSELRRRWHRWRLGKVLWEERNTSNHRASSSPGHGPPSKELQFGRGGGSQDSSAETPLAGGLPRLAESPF

12-3A: Peptide No. 12-3 lipidated via conjugation to C-terminal cysteine (type A) (Y[Aib]QGTFTSDWSKYLDQQMQQDFVDWLLNGGPSSGAPPPSC([AEEA-AEEA-γGlu-C18])-NH2)
Weight loss (%) [1, 2]: 0.2 ± 1.8%

12-5A: Peptide No. 12-5 lipidated via conjugation to C-terminal cysteine (type A) (H[Aib]QGTFTSDWSKYLDQQMQQDFVDWLLNGGPSSGAPPPSC([AEEA-AEEA-γGlu-C18])-NH2)
Weight loss (%) [1, 2]: 5.4 ± 0.9%

12-1A: Peptide No. 12-1 lipidated via conjugation to C-terminal cysteine (type A) (Y[Aib]QGTFTSDWSKYLDQQMAQDFVDWLINGGPSSGAPPPSC([AEEA-AEEA-γGlu-C18])-NH2)
Weight loss (%) [1, 2]: 9.0 ± 2.2%

CC[C@H](C)[C@H](NC(=O)[C@H](CC(C)C)NC(=O)[C@H](Cc1c[nH]c2ccccc12)NC(=O)[C@H](CCC(N)=O)NC(=O)[C@@H](NC(=O)[C@H](Cc1ccccc1)NC(=O)[C@H](CC(=O)O)NC(=O)[C@H](CCCNC(=N)N)NC(=O)[C@H](C)NC(=O)[C@H](CCSC)NC(=O)[C@H](CCSC)NC(=O)[C@H](Cc1ccc(O)cc1)NC(=O)[C@H](CC(=O)O)NC(=O)[C@H](CC(C)C)NC(=O)[C@H](Cc1ccc(O)cc1)NC(=O)[C@H](CCCCNC(=O)CCCC[C@@H]1SC[C@@H]2NC(=O)N[C@@H]21)NC(=O)[C@H](CO)NC(=O)[C@H](Cc1ccc(O)cc1)NC(=O)[C@H](CC(=O)O)NC(=O)[C@H](CO)NC(=O)[C@@H](NC(=O)[C@H](Cc1ccccc1)NC(=O)[C@@H](NC(=O)CNC(=O)[C@H](CCC(N)=O)NC(=O)C(C)(C)NC(=O)[C@@H](N)Cc1c[nH]cn1)[C@@H](C)O)[C@@H](C)O)C(C)C)C(=O)N[C@@H](CCC(=O)O)C(=O)NCC(=O)NCC(=O)N1CCC[C@H]1C(=O)N[C@@H](CO)C(=O)N[C@@H](CO)C(=O)NCC(=O)N[C@@H](C)C(=O)N1CCC[C@H]1C(=O)N1CCC[C@H]1C(=O)N1CCC[C@H]1C(=O)N[C@@H](CO)C(=O)N[C@@H](CSC1CC(=O)N(CCNC(=O)COCCOCCNC(=O)COCCOCCNC(=O)CC[C@H](NC(=O)CCCCCCCCCCCCCCCCC(=O)O)C(=O)O)C1=O)C(N)=O (stereo partly shown) [5B, HAibQGT FTSDY SB*YLD YMMARDFVQWLIEGGPSSGAPPPSC*]
Activity relative to STD peptide (%), GLP-1 (human GLP-1R; [3]): 87% | Activity relative to GLP-1 (%), GLP-1 (human GLP-1R; [4]): 100% | Activity relative to STD peptide (%), GIP (human GIPR; [3]): 2% | Activity relative to GLP-1 (%), GIP (human GIPR; [4]): 2% | Activity relative to STD peptide (%), Glucagon (human GCGR; [3]): 5% | Activity relative to GLP-1 (%), Glucagon (human GCGR; [4]): 6%

12-7A: Peptide No. 12-7 lipidated via conjugation to C-terminal cysteine (type A) (H[Aib]EGTFTSDWSKYLDQQMAQDFVDWLINGGPSSGAPPPSC([AEEA-AEEA-γGlu-C18])-NH2)
Weight loss (%) [1, 2]: 9.5 ± 3.0%

12-4A: Peptide No. 12-4 lipidated via conjugation to C-terminal cysteine (type A) (H[Aib]QGTFTSDWSKYLDQQMQQDFVDWLINGGPSSGAPPPSC([AEEA-AEEA-γGlu-C18])-NH2)
Weight loss (%) [1, 2]: 4.3 ± 0.9%

YAibQGT FTSDY SKYLD YK*MAR DFVQW LIEGG PSSGA PPPS (Y[Aib]QGTFTSDYSKYLDYK([AEEA-AEEA-γGlu-C18])MARDFVQWLIEGGPSSGAPPPS-NH2) [5-1F, K* = lysine lipidated with 2OEG-γGlu-C18]
Weight loss (%) [1, 5]: 21.9 ± 2.5%

HAibQGT FTSDY SK*YLD YMMQRDFVQWLIEGGPSSGAPPPS (H[Aib]QGTFTSDYSK([AEEA-AEEA-γGlu-C18])YLDYMMQRDFVQWLIEGGPSSGAPPPS-NH2) [5-4D, K* = lysine lipidated with 2OEG-γGlu-C18]
Weight loss (%) [1, 5]: 7.2 ± 0.9%

HAibQGT FTSDY SK*LLD YMMQRDFVQWLLEGGPSSGAPPPS (H[Aib]QGTFTSDYSK([AEEA-AEEA-γGlu-C18])LLDYMMQRDFVQWLLEGGPSSGAPPPS-NH2) [5-5D, K* = lysine lipidated with 2OEG-γGlu-C18]
Weight loss (%) [1, 5]: 10.3 ± 1.3%

12-2A: Peptide No. 12-2 lipidated via conjugation to C-terminal cysteine (type A) (Y[Aib]QGTFTSDWSKYLDQQMQQDFVDWLINGGPSSGAPPPSC([AEEA-AEEA-γGlu-C18])-NH2)
Weight loss (%) [1, 2]: 2.0 ± 0.9%

5-3A: Peptide No. 5-3 lipidated via conjugation to C-terminal cysteine (type A) (Y[Aib]QGTFTSDYSKLLDYMMQRDFVQWLLEGGPSSGAPPPSC([AEEA-AEEA-γGlu-C18])-NH2)
body weight loss effect, in words ([1]; Example 5, 20 nmol/kg s.c. QD, 4 days): least effect | Weight loss (%) [1, 2]: 5.5 ± 1.6%

5-4A: Peptide No. 5-4 lipidated via conjugation to C-terminal cysteine (type A) (H[Aib]QGTFTSDYSKYLDYMMQRDFVQWLIEGGPSSGAPPPSC([AEEA-AEEA-γGlu-C18])-NH2)
Weight loss (%) [1, 2]: 8.3 ± 0.9%

Y-Aib-QGTFTSDYSI-αMeL-LDKK((2-[2-(2-amino-ethoxy)-ethoxy]-acetyl)-(γGlu)-CO-(CH2)18-CO2H)AQ-Aib-AFIEYLLE-Aib-GPSS-Aib-APPPS-NH2 (Y[Aib]QGTFTSDYSI[αMeL]LDKK([AEEA-γGlu-C20 diacid])AQ[Aib]AFIEYLLE[Aib]GPSS[Aib]APPPS-NH2; N-terminus assumed; SMILES CC[C@H](C)[C@H](NC(=O)[C@H](Cc1ccccc1)NC(=O)[C@H](C)NC(=O)C(C)(C)NC(=O)[C@H](CCC(N)=O)NC(=O)[C@H](C)NC(=O)[C@H](CCCCNC(=O)COCCOCCNC(=O)CC[C@H](NC(=O)CCCCCCCCCCCCCCCCCCC(=O)O)C(=O)O)NC(=O)[C@H](CCCCN)NC(=O)[C@H](CC(=O)O)NC(=O)[C@H](CC(C)C)NC(=O)[C@](C)(CC(C)C)NC(=O)[C@@H](NC(=O)[C@H](CO)NC(=O)[C@H](Cc1ccc(O)cc1)NC(=O)[C@H](CC(=O)O)NC(=O)[C@H](CO)NC(=O)[C@@H](NC(=O)[C@H](Cc1ccccc1)NC(=O)[C@@H](NC(=O)CNC(=O)[C@H](CCC(N)=O)NC(=O)C(C)(C)NC(=O)[C@@H](N)Cc1ccc(O)cc1)[C@@H](C)O)[C@@H](C)O)[C@@H](C)CC)C(=O)N[C@@H](CCC(=O)O)C(=O)N[C@@H](Cc1ccc(O)cc1)C(=O)N[C@@H](CC(C)C)C(=O)N[C@@H](CC(C)C)C(=O)N[C@@H](CCC(=O)O)C(=O)NC(C)(C)C(=O)NCC(=O)N1CCC[C@H]1C(=O)N[C@@H](CO)C(=O)N[C@@H](CO)C(=O)NC(C)(C)C(=O)N[C@@H](C)C(=O)N1CCC[C@H]1C(=O)N1CCC[C@H]1C(=O)N1CCC[C@H]1C(=O)N[C@@H](CO)C(N)=O) [EL.EX.14, reference compound]
Weight loss (%) ([1]; 10 nmol/kg QD, after 48 or 72 hours): 11.0 ± 2.4%
